# Experimental data: US20230060873A1, “COMPOUNDS AND METHODS FOR FORMING ION CHANNELS IN BIOLOGICAL MEMBRANES” (Washington University, priority 2021, published 2023)
# How the values were obtained:
# [1] = test system: B. subtilis cells; assay: Lactate dehydrogenase release (resofurin fluorescence), MAcBCE/MAkBCE and controls; type: cell-based, Bacillus subtilis; details: 37° C, potassium lactate/NAD+ solution
# Procedure: A 2 mL liquid culture of transformed B. subtilis cells was grown at 37° C. in LB media supplemented with […] kanamycin, until OD600=0.6. Cells were collected by centrifugation at 2000 rpm over 3 min. The bacterial pellet was washed twice in lactate/NAD^+ solution (95 mM potassium lactate, 10 mM nicotinamide adenine dinucleotide (NAD^+), 10 mM HEPES, pH adjusted to 7.4 with KOH). After the last centrifugation step, the bacteria were resuspended until OD600=1.0 in the lactate/NAD^+ solution, then diluted 100× in the same solution. The working fluorophore solution was a 1 mM of resazurin sodium salt (Alfa Cesar) in water. The experiment was started with 3 mL of lactate/NAD^+ solution in a quartz cuvette, then 3.1 μL of resazurin solution was added (timepoint t1, 50 sec) for a 1 μM final concentration, followed by the addition of 100 μL of the diluted B. subtilis suspension (timepoint t2, 100 sec). After 150 sec (timepoint t3, 250 sec), 10 μL of diaphorase (Worthinton Biochemical Corporation) 10 mg/mL solution was added. The final step involved the addition of 0.62 μL of a 10 mM stock solution of dialkylated diaza lariat ether (LEC10) in TFE (timepoint t4, 400 sec), for a final LEC10 concentration of 2 μM; or 3.1 μL of a 2 mM stock solution of valinomycin in DMSO, for a final valinomycin concentration of 2 μM; or 3.1 μL of a 20 mg/mL stock solution of lysozyme in lactate/NAD^+ solution, for a final lysozyme concentration of 20 μg/mL; or 3.1 μL of 10 mM stock solution of each MAcBCE or MAkBCE compounds in TFE, for final concentrations of 10 μM. Fluorescence intensity was recorded each second using a Horiba Fluoromax 4 spectrometer (λexcitation=550 nm; λemission=583 nm). […] To normalize, the fluorescence intensity was divided by the fluorescence level just before timepoint t4. […]
# Experiments were repeated at least three times per condition. To normalize, the fluorescence intensity was divided by the fluorescence level just before timepoint t4.
# [2] = test system: B. subtilis membrane; assay: DiSC3(5) depolarization assay, lariat ethers; type: cell-based, Bacillus subtilis; details: 2 μM compound; 60 mM KCl, NaCl or NMDG-Cl; NMDG-MeSO3 solution; 25° C
# Procedure: Dialkylated lariat ethers LEC6-LEC14 were then tested for their ability to depolarize a B. subtilis membrane using the fluorescent dye 3,3-dipropylthiadicarbocyanine (DiSC3(5)), which undergoes membrane voltage-dependent partitioning between the intracellular and the extracellular medium. FIGS. 23-31 show the time course of the DiSC3(5) fluorescence due to the activity of dialkylated lariat ethers with alkyl chains 6 to 14 carbons in length. The experiment was performed in a NMDG-MeSO3 solution (100 mM NMDG, 10 mM HEPES, pH adjusted to 7.4 with methanesulfonic acid). The events are: t1, addition of dye; t2, addition of B. subtilis; t3, addition of a 2 M KCl or a 2 M NMDG-Cl solution up to a final concentration of 60 mM; t4, addition of dialkylated lariat ether up to 2 μM. Control experiments were performed that were similar to the two previously described experiments, with the exception that additional NMDG-MeSO3 solution without cells was added at timepoint t2. The experiments were normalized relative to the final fluorescence intensity in the control experiments, as described below.
# To conduct the experiments shown in FIGS. 23-31, a 2-mL liquid culture of B. subtilis cells was grown at 37° C. in LB media until OD600=0.600, and then collected by centrifugation at 2000 rpm during 3 min. The bacteria were washed once in NMDG-MeSO3 solution (100 mM NMDG, 10 mM HEPES, pH adjusted to 7.4 with methanesulfonic acid) or dextrose solution (200 mM dextrose, 10 mM Tris, pH adjusted to 7.4 with HCl) depending on the experiment. The centrifugation step was repeated and the bacteria were resuspended until OD600=1.0 in the same solution. The working dye solution was a 200 μM solution of DiSC3(5) (3,3′-dipropylthiadicarbocyanine iodide; Tokyo Chemical Industry) in DMSO. […] After 150 sec (timepoint t3, 250 sec) the fluorescence stabilized to a minimum intensity and 100 μL of 2M NMDG-Cl, 2M NaCl or 2 M KCl solution was added to reach a about 60 mM final concentration of the salt. […] Fluorescence intensity was recorded each second using a Horiba Fluoromax 4 spectrometer (excitation wavelength=640 nm; emission wavelength=670 nm). […] To normalize the fluorescence, experiments in the same conditions but without adding bacteria were performed, normalization was done by dividing the fluorescence by the final fluorescence level of these experiments.
# Cell hyperpolarization (more negatively charged inside the cell) results in an uptake of the dye, while cell membrane depolarization (more positively charged inside the cell) results in a release of the dye. The accumulation of the dye in the interior of the cell can be detected by a decrease in fluorescence due to self-quenching, which enables the dye to be utilized as an indirect reporter of changes in cell membrane voltage. […]
Compound,resofurin fluorescence (LDH release) ([1]; 2 μM),relative DiSC3(5) release in the presence of different cations [2],resofurin fluorescence (LDH release) ([1]; 20 μg/mL)
CC(C)[C@@H]1NC(=O)[C@H](C)OC(=O)[C@@H](C(C)C)NC(=O)[C@@H](C(C)C)OC(=O)[C@H](C(C)C)NC(=O)[C@H](C)OC(=O)[C@@H](C(C)C)NC(=O)[C@@H](C(C)C)OC(=O)[C@H](C(C)C)NC(=O)[C@H](C)OC(=O)[C@@H](C(C)C)NC(=O)[C@@H](C(C)C)OC1=O [valinomycin],no effect,only when K^+ was added,
lysozyme,,,increase in the resofurin fluorescence levels
